Read-outs that look alike come from different tables or passages of the source.
Tests used:
[1] = system: GST-SlCOI1 with FLAG-SlJAZ1-3/5–8; assay: Pull down assay of GST-SlCOI1 with FLAG-SlJAZ (full-length proteins); assay type: binding, Solanum lycopersicum; conditions: ligand 100 nM; full-length FLAG-SlJAZ1-3/5–8; immunoblotting
Text: (§1) SlJAZ genes were cloned from the tomato cultivar Micro-Tom and their FLAG-tag-fused proteins FLAG-SlJAZ1-11/13 expressed using the wheat germ-derived cell-free protein expression system (Supplementary Fig. S1). GST-fused SlCOI1 (GST-SlCOI1) was also expressed in Sf9 cultured insect cells (Supplementary Fig. S2). Arabidopsis ASK protein was co-expressed to improve the stability of SlCOI1[26].
(§2) Figure 2 (a) Pull down assay of GST-SlCOI1 with FLAG-SlJAZ (full-length proteins) in the presence of JA-Ile (100 nM). GST-SlCOI1 bound to FLAG-SlJAZ proteins was pulled down with anti-FLAG antibody and Protein G magnetic beads, and analyzed by immunoblotting (top: anti-GST-HRP conjugate for detection of GST-SlCOI1, bottom: anti-FLAG antibody and anti mouse-IgG HRP conjugate for detection of FLAG-SlJAZs). *or **show the bands derived from heavy chain or light chain of the anti-FLAG antibody. (b) Pull down assay of GST-SlCOI1 with Fl-SlJAZPs in the presence of JA-Ile (100 nM). GST-SlCOI1 bound to Fl-SlJAZPs was pulled down with anti-fluorescein antibody and Protein G magnetic beads, and analyzed by immunoblotting (anti-GST-HRP conjugate for detection of GST-SlCOI1).
(§3) All chemicals (JA-Ile or COR) were dissolved in ethanol to generate 10 mM stock solutions and diluted with 20% ethanol aq. for preparation of 100 μM stock solutions. For the pull-down experiments using full-length SlJAZ proteins, purified GST-COI1 (5 nM), FLAG-tagged SlJAZ (each 20 µL of the translation mixture), and the ligands (COR or JA-Ile) in 350 µL of incubation buffer (50 mM Tris–HCl buffer, pH 7.8, 100 mM NaCl, 20 mM 2-mercaptoethanol, 10% glycerol, 0.1% Tween20, 100 nM inositol-1,2,4,5,6-pentakisphosphate (IP5)) were combined with anti-FLAG antibody (0.2 µL, Sigma Aldrich, F1804, clone M2), and incubated for 10–15 h at 4 °C with rotation. After incubation, the samples were combined with SureBeads Protein G (10 µL in 50% incubation buffer slurry, Bio-Rad). After 3 h incubation at 4 °C with rotation, the samples were washed three times with 350 µL of fresh incubation buffer. The washed beads were resuspended in 35 µL of SDS-PAGE loading buffer containing dithiothreitol (DTT, 100 mM). After heating for 10 min at 60 °C, the samples were subjected to SDS-PAGE and analyzed by western blotting. The bound GST-COI1 protein was detected using anti-GST HRP conjugate (RPN1236, GE Healthcare, 5000-fold dilution in blocking buffer (Nakalai tesque, Inc., Japan). FLAG-JAZ proteins were detected using anti-FLAG antibody (1000-fold dilution in blocking buffer) and anti-mouse IgG-HRP antibody (Southern Biotech. Inc., Birmingham, US, 1031-05, 20,000-fold dilution in blocking buffer). Three independent replicates using proteins purified at different times were done with similar results (Supplementary Fig. S3).

[2] = system: GST-SlCOI1 with FLAG-SlJAZ9-11; assay: as above; assay type: binding, Solanum lycopersicum; conditions: ligand 100 nM; full-length FLAG-SlJAZ9-11; immunoblotting
Text: as §1, §2, §3

[3] = system: GST-SlCOI1 with FLAG-SlJAZ4/13; assay: as above; assay type: binding, Solanum lycopersicum; conditions: ligand 100 nM; full-length FLAG-SlJAZ4/13; immunoblotting
Text: as §1, §2, §3

[4] = target: SlCOI1-SlJAZ6; assay: AlphaScreen assay, GST-SlCOI1 and Fl-SlJAZP6; assay type: binding, Solanum lycopersicum; conditions: calculated from AlphaScreen; 5 nM SlCOI1, 10 nM Fl-SlJAZP6
Method: (§4) AlphaScreen experiments were performed at 25 °C in the incubation buffer. 15 μL of the reaction mixture containing the incubation buffer, 5 nM SlCOI1, 10 nM Fl-SlJAZPs and various concentrations of COR or JA-Ile was added to a 1/2 Area AlphaPlate-96 (PerkinElmer), and then incubated for 1 h at 4 °C. Then, 10 μL of a detection mixture containing incubation buffer, 0.1 μL of FITC-coated donor beads, 0.1 μL of GST-coated acceptor beads was added to each well. Finally, the mixture was incubated for 12 h and the luminescence signals were detected using the Envision 2105 Multimode Plate Reader (PerkinElmer). The experiment was repeated three times, and the data are presented as average values with standard deviation. To clarify the difference in the affinity of the ligands with each COI1/JAZ co-receptor, the results of the AlphaScreen assay are shown with the normalized signal intensity change (Figs. 3, 4, and Supplementary Fig. S9) along with the raw signal intensity (Supplementary Figs. S8, S10, and S13)[40].

[5] = target: T1, SlCOI1-SlJAZ1 (Solanum lycopersicum, UniProt A0A3Q7H988+Q6TDU2); assay: AlphaScreen assay, GST-SlCOI1 and Fl-SlJAZP1; assay type: binding; conditions: calculated from AlphaScreen, 5 nM SlCOI1, 10 nM Fl-SlJAZP1
T1 sequence (Q6TDU2 1-603): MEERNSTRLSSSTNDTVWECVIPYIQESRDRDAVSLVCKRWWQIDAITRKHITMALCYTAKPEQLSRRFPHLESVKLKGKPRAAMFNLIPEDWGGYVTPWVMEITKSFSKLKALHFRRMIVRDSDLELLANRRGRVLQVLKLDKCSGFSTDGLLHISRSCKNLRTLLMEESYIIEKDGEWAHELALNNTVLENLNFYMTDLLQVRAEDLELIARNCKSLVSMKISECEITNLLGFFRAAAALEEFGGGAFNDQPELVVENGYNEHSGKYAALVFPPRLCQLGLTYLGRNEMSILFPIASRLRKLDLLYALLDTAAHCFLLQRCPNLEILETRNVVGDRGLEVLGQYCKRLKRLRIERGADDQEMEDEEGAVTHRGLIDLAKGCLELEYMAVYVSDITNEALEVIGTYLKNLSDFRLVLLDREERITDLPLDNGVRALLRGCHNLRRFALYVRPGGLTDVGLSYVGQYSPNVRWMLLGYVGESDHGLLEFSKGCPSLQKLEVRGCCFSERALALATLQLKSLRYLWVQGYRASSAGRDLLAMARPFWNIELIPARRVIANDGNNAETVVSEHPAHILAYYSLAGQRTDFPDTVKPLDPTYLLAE
T1 sequence (A0A3Q7H988 159-185): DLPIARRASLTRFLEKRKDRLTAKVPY
T1 sequence (Q39255 1-160 partner): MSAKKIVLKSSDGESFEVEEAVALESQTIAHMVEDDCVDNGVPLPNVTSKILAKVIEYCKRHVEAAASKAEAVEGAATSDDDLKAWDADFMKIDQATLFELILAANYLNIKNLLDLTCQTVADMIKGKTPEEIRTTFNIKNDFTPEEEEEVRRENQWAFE
Method: as §4

[6] = target: T2, SlCOI1-SlJAZ13 (Solanum lycopersicum, UniProt A0A3Q7EQ67+Q6TDU2); assay: AlphaScreen assay, GST-SlCOI1 and Fl-SlJAZP13; assay type: binding; conditions: calculated from AlphaScreen, 5 nM SlCOI1, 10 nM Fl-SlJAZP13
T2 sequence (Q6TDU2 1-603): T1 sequence (Q6TDU2 1-603)
T2 sequence (A0A3Q7EQ67 85-111): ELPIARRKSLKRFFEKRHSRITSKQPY
T2 sequence (Q39255 1-160 partner): T1 sequence (Q39255 1-160 partner)
Method: as §4

[7] = target: SlCOI1-SlJAZ11; assay: AlphaScreen assay, GST-SlCOI1 and Fl-SlJAZP11; assay type: binding, Solanum lycopersicum; conditions: calculated from AlphaScreen; 5 nM SlCOI1, 10 nM Fl-SlJAZP11
Method: as §4

[8] = target: SlCOI1-SlJAZ9; assay: AlphaScreen assay, GST-SlCOI1 and Fl-SlJAZP9; assay type: binding, Solanum lycopersicum; conditions: calculated from AlphaScreen; 5 nM SlCOI1, 10 nM Fl-SlJAZP9
Method: as §4

[9] = target: T3, SlCOI1-SlJAZ7 (Solanum lycopersicum, UniProt Q6TDU2+Q9M723); assay: AlphaScreen assay, GST-SlCOI1 and Fl-SlJAZP7; assay type: binding
T3 sequence (Q6TDU2 1-603): T1 sequence (Q6TDU2 1-603)
T3 sequence (Q9M723 174-200): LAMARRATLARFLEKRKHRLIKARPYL
T3 sequence (Q39255 1-160 partner): T1 sequence (Q39255 1-160 partner)
Method: as §4

[10] = target: T4, SlCOI1-SlJAZ5 (Solanum lycopersicum, UniProt A0A3Q7FUH8+Q6TDU2); assay: AlphaScreen assay, GST-SlCOI1 and Fl-SlJAZP5; assay type: binding; conditions: calculated from AlphaScreen, 5 nM SlCOI1, 10 nM Fl-SlJAZP5
T4 sequence (Q6TDU2 1-603): T1 sequence (Q6TDU2 1-603)
T4 sequence (A0A3Q7FUH8 327-353): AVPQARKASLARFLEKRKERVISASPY
T4 sequence (Q39255 1-160 partner): T1 sequence (Q39255 1-160 partner)
Method: as §4

[11] = target: SlCOI1-SlJAZ8; assay: AlphaScreen assay, GST-SlCOI1 and Fl-SlJAZP8; assay type: binding, Solanum lycopersicum; conditions: calculated from AlphaScreen; 5 nM SlCOI1, 10 nM Fl-SlJAZP8
Method: as §4

[12] = target: SlCOI1-SlJAZ10; assay: AlphaScreen assay, GST-SlCOI1 and Fl-SlJAZP10; assay type: binding, Solanum lycopersicum; conditions: calculated from AlphaScreen; 5 nM SlCOI1, 10 nM Fl-SlJAZP10
Method: as §4

[13] = target: GST-SlCOI1 and SlJAZP1-4DOD; assay: AlphaScreen assay, GST-SlCOI1 and swapped SlJAZP1-4DOD; assay type: binding, Solanum lycopersicum; conditions: swapped peptide: DOD sequence of SlJAZP1 swapped with that of SlJAZP4
Text: To examine the effect of the DOD sequence, we studied SlJAZP1-4/13 which incorporate the same JAZ degron sequence LPIARR and alternative DOD sequence XSLX. […] We prepared SlJAZP1-3DOD and SlJAZP1-4DOD, wherein the DOD sequence of SlJAZP1 was swapped with those of SlJAZP3 and SlJAZP4, respectively (Fig. 4a, and Supplementary Figs. S11–12). […] Next, we examined whether the DOD sequence also affected the affinity of SlJAZP5/6/8 with another JAZ degron sequence VPQARK. […] We prepared DOD swapped peptides SlJAZP5-2DOD (ASLA of SlJAZ5 to NSLT of SlJAZ2) and SlJAZP2-5DOD (NSLT of SlJAZ2 to ASLA of SlJAZ5) (Fig. 4a, and Supplementary Figs. S11–12).
as §4, with “To clarify the difference in the affinity of the ligands with each COI1/JAZ co-receptor, the results of the AlphaScreen assay are shown with the normalized signal intensity change (Figs. 3, 4, and Supplementary Fig. S9) along with the raw signal intensity (Supplementary Figs. S8, S10, and S13)[40].” left out

Structure (SMILES)	pull-down of GST-SlCOI1 [1]	pull-down of GST-SlCOI1 [2]	pull-down of GST-SlCOI1 [3]	Kd [4]	Kd [5]	Kd [6]	Kd [7]	Kd [8]	Kd [9]	Kd [10]	Kd [11]	Kd [12]	Kd ([5]; read-out: Kd)	Kd ([6]; read-out: Kd)	Kd ([9]; calculated from AlphaScreen, 5 nM SlCOI1, 10 nM Fl-SlJAZP7, read-out: Kd)	Kd ([10]; read-out: Kd)	Kd [13]
CC[C@H]1C=C(C(=O)N[C@@]2(C(=O)O)C[C@@H]2CC)[C@H]2CCC(=O)[C@H]2C1 [COR, coronatine]	Identical results	Identical results	Identical results	0.76 nM	4.9 nM	80.7 nM	62.4 nM	44.7 nM	0.23 nM	0.64 nM	0.39 nM	89.7 nM	–	–	–	–	–
CC/C=C\C[C@@H]1C(=O)CC[C@@H]1CC(=O)N[C@H](C(=O)O)[C@@H](C)CC [JA-Ile, (+)-7-iso-Jasmonoyl-L-isoleucine]	pulled-down GST-SlCOI1	not FLAG-SlJAZ9-11 pulled-down GST-SlCOI1	could not pull-down the GST-SlCOI1	4.1 nM	–	–	430 nM	1110 nM	–	–	2.2 nM	402 nM	9.2 nM	637 nM	16.2 nM	4.2 nM	46.9 nM
